From BindingDB's records for doi:10.1021/jm900517t

Columns and labels:
Assay in all cases: HCV RNA-Dependent RNA Polymerase Assay (IC50)
[1] = target: Genome polyprotein (Hepatitis C virus genotype 2b (isolate HC-J8), UniProt P26661)
[2] = target: Genome polyprotein (Hepatitis C virus genotype 1b (isolate BK), UniProt P26663); details: pH 7.5; 23 °C
[3] = target: T1, Genome polyprotein [2420-2989,M2842K,R2963Q] (Hepatitis C virus genotype 1b (isolate BK), UniProt P26663, M2842K/R2963Q); details: pH 7.5; 23 °C
T1 construct: 2420-2989
T1 sequence (P26663 2420-2997, looked up, stated change not applied): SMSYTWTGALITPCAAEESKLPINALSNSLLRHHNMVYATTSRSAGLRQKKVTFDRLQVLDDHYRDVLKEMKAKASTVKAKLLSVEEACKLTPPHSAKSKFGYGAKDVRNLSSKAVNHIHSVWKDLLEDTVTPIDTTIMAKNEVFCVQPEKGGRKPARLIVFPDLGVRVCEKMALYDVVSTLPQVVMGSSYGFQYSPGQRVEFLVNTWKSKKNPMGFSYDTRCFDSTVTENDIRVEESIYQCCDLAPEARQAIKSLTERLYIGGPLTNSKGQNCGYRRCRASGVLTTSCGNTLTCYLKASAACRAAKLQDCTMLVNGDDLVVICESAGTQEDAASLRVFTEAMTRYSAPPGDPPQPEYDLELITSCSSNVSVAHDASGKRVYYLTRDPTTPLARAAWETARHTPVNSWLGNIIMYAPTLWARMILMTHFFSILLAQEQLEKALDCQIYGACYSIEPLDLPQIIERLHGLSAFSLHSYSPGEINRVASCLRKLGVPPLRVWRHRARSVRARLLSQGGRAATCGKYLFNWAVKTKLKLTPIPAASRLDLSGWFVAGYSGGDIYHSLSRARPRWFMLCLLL

[4] = target: T2, Genome polyprotein [2420-2989,R2920E,R2963Q] (Hepatitis C virus genotype 1b (isolate BK), UniProt P26663, R2920E/R2963Q); details: pH 7.5; 23 °C
T2 construct: 2420-2989
T2 sequence (P26663 2420-2997, looked up, stated change not applied): as above

Chain of Genome polyprotein (Hepatitis C virus genotype 2b (isolate HC-J8), UniProt P26661) (P26661 2443-3033 limits assumed): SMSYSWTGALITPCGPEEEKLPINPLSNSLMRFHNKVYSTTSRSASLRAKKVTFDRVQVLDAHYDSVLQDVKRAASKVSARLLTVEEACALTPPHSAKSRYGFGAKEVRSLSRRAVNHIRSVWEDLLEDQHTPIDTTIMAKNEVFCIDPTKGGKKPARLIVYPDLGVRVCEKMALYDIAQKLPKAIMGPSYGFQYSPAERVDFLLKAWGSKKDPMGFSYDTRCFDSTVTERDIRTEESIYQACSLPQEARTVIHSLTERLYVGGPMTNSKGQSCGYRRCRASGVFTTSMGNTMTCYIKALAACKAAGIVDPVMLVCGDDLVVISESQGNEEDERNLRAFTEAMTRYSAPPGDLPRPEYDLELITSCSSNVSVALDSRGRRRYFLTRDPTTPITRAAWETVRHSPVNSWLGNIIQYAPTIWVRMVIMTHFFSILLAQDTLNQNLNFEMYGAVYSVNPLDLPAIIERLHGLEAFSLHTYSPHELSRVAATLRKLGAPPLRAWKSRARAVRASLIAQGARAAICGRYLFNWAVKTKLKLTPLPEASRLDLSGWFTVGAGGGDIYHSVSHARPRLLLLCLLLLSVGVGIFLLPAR
Chain of Genome polyprotein (Hepatitis C virus genotype 1b (isolate BK), UniProt P26663) (P26663 2420-3010 limits assumed): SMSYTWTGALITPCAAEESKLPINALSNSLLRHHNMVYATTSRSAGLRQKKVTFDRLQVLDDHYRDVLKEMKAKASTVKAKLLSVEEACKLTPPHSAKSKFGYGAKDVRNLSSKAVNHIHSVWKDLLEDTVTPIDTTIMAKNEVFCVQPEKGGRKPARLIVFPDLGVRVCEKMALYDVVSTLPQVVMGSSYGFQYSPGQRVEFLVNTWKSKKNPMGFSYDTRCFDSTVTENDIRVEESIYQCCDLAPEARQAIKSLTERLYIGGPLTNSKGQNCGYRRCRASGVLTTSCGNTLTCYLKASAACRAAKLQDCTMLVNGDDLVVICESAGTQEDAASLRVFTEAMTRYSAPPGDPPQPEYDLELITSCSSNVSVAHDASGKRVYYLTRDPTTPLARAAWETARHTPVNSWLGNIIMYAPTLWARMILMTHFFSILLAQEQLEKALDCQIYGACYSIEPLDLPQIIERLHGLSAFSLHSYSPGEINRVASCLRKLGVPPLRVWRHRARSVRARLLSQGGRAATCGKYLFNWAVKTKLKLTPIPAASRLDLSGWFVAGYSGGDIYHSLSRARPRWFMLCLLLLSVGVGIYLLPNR

IC50 [1] | IC50 [2] | SMILES | IC50 [3] | IC50 [4]
> 50 µM | – | O=C1c2cccc3c(NCCO)ccc(c23)C(=O)N1c1ccccc1 [1H-benzo[de]isoquinoline-1,3(2H)-dione, 4] | – | –
> 50 µM | > 50 µM | O=C1c2cccc3cccc(c23)C(=O)N1c1cccc(Br)c1 [1H-benzo[de]isoquinoline-1,3(2H)-dione, 5] | – | –
> 50 µM | – | O=C1c2cccc3c(NCCO)ccc(c23)C(=O)N1c1cccc(F)c1 [1H-benzo[de]isoquinoline-1,3(2H)-dione, 13] | – | –
> 50 µM | – | NS(=O)(=O)c1cccc(N2C(=O)c3cccc4c(NCCO)ccc(c34)C2=O)c1 [1H-benzo[de]isoquinoline-1,3(2H)-dione, 14] | – | –
> 50 µM | > 50 µM | OCCNc1ccc2c3c(cccc13)CN(c1cccc(Br)c1)C2 [benzo[de]isoquinoline, 11] | – | –

SMILES | IC50 [1] | IC50 [2] | IC50 [3] | IC50 [4]
CC(C)N(c1cc(-c2ccccc2)sc1C(=O)O)C(=O)[C@H]1CC[C@H](C)CC1 [thiophene scaffold, 21] | > 10 µM | – | > 0.5 µM | 0.1 µM
